PMC4310350 (Drug Design, Development and Therapy, 2015)
“Also recorded” adds a separate entry of the source. Read-outs that look alike come from different tables or passages of the source.

How the values were obtained:
[1] = biological target: T1, OAT3 (Homo sapiens, UniProt Q8TCC7); conditions: cited from earlier work
T1 sequence (Q8TCC7 1-542): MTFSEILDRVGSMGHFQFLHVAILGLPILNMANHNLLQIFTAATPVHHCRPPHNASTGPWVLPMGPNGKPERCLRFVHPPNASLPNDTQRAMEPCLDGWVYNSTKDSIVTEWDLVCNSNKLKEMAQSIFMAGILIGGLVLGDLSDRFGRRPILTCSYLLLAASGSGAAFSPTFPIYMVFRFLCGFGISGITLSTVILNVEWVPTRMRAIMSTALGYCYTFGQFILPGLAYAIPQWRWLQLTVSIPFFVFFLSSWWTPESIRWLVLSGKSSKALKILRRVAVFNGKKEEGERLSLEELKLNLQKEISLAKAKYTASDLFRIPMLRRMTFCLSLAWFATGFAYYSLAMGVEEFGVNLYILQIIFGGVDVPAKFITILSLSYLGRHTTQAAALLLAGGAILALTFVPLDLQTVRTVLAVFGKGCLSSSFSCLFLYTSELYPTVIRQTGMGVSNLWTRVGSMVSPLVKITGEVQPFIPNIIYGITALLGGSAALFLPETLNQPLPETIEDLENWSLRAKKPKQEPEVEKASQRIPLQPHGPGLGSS

[2] = biological target: T2, OAT1 (Homo sapiens, UniProt Q4U2R8); conditions: cited from earlier work
T2 sequence (Q4U2R8 1-563): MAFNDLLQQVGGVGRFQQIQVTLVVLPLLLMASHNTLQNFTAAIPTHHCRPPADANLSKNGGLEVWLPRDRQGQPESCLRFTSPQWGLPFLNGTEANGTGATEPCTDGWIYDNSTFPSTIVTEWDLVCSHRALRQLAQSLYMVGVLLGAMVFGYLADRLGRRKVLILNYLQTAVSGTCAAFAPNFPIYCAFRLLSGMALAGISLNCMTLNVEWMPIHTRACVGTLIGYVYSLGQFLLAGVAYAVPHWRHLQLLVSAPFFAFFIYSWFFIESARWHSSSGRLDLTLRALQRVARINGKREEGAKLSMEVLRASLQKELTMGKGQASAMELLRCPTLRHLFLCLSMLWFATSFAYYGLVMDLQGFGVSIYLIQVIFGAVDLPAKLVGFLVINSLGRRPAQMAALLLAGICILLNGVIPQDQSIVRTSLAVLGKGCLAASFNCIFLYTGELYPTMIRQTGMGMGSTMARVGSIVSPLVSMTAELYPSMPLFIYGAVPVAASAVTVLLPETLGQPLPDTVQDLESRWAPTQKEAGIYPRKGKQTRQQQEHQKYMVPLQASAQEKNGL

[3] = biological target: T3, OATP1B3 (Homo sapiens, UniProt Q9NPD5); conditions: cited from earlier work
T3 sequence (Q9NPD5 1-702): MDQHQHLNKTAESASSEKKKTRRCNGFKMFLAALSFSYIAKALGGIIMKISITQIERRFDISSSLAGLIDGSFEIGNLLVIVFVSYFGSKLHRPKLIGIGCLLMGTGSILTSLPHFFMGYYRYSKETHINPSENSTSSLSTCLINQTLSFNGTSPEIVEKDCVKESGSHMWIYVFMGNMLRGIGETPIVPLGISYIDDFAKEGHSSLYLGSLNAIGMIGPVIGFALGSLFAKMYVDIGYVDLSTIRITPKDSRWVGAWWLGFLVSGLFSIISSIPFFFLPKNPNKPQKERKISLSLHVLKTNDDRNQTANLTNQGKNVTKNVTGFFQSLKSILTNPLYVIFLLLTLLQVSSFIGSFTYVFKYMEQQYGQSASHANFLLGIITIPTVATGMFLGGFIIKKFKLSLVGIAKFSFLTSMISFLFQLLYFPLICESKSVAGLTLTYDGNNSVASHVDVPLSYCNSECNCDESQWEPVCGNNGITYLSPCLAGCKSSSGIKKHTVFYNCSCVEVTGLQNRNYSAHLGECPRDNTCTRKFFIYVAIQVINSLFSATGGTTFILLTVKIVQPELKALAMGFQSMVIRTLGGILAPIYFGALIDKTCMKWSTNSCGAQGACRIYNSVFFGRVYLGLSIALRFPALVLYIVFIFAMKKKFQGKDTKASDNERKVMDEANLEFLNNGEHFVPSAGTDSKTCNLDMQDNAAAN

[4] = biological target: T3, OATP1B3; assay type: in vitro ADME; conditions: 10 μM catalposide, HEK293-OATP1B3
[5] = biological target: T4, OATP1B1 (Homo sapiens, UniProt Q9Y6L6); conditions: 10 μM catalposide, HEK293-OATP1B1
T4 sequence (Q9Y6L6 1-691): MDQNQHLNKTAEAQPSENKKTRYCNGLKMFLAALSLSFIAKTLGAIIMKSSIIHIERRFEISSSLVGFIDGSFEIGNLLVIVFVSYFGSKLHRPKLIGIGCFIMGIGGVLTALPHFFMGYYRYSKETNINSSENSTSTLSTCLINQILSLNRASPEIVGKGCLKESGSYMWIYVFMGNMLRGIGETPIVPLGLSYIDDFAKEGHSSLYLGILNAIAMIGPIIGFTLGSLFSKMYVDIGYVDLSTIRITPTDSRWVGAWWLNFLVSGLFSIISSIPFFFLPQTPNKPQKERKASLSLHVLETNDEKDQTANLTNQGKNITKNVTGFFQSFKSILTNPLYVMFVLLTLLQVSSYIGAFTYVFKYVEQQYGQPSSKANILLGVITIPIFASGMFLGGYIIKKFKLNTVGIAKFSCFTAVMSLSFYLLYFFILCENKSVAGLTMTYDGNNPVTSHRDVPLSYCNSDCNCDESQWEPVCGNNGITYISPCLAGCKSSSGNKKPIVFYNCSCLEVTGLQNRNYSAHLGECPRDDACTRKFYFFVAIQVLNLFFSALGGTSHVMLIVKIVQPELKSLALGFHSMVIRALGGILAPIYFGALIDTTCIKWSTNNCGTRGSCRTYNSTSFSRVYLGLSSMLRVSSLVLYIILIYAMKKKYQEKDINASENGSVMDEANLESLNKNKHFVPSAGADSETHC

[6] = biological target: T3, OATP1B3; assay: Uptake in HEK293 cells overexpressing OATP1B3; assay type: in vitro ADME; conditions: probe substrate, functionality check of OATP1B3
[7] = test system: OATP2B1; conditions: cited from earlier work
[8] = biological target: T1, OAT3; conditions: 10 μM catalposide, HEK293-OAT3
[9] = biological target: T1, OAT3; assay: in vitro; conditions: HEK293 cells transiently expressing OAT3, probe catalposide 10 μM
[10] = biological target: T5, BCRP (Homo sapiens, UniProt Q9UNQ0); assay: A-to-B and B-to-A transport in LLC-PK1 cells overexpressing BCRP; assay type: in vitro ADME; conditions: probe substrate, LLC-PK1-BCRP compared with LLC-PK1-mock cells
T5 sequence (Q9UNQ0 1-655): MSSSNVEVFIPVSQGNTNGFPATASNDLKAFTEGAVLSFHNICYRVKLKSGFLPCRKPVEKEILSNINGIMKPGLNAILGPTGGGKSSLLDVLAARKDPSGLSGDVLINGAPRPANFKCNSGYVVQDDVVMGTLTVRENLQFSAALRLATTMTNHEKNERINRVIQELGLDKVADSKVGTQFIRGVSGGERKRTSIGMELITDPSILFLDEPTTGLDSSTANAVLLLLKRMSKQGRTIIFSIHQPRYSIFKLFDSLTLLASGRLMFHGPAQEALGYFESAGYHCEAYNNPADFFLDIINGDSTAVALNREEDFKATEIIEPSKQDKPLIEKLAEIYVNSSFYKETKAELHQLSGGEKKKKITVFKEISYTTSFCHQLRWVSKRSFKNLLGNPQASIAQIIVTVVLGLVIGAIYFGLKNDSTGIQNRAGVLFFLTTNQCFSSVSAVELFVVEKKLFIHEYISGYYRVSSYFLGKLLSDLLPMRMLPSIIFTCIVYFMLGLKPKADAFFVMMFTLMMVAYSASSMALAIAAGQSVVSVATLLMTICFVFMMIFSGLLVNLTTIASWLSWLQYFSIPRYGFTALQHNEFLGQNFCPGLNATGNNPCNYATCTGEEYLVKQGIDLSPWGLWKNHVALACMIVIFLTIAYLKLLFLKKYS

[11] = biological target: T4, OATP1B1; assay: Uptake in HEK293 cells overexpressing OATP1B1; assay type: in vitro ADME; conditions: probe substrate, functionality check of OATP1B1
[12] = biological target: T1, OAT3; assay: Uptake in HEK293 cells overexpressing OAT3; assay type: in vitro ADME; conditions: probe substrate, functionality check of OAT3
[13] = substrate: O=C(O[C@H]1[C@@H]2C=CO[C@@H](O[C@@H]3O[C@H](CO)[C@@H](O)[C@H](O)[C@H]3O)[C@@H]2[C@@]2(CO)O[C@@H]12)c1ccc(O)cc1; assay: Uptake in HEK293 cells overexpressing OAT3; assay type: in vitro ADME; conditions: other: OAT3-mediated uptake, 2–500 μM catalposide, 10 minutes; 37.0 °C

Molecule: O=c1cc(-c2ccccc2)oc2cc(O)c(O)c(O)c12 [Bicalein]
- Inhibition of OAT3 transport activity [1]: significantly inhibited
- Inhibition of OAT1 transport activity [2]: significantly inhibited
- Inhibition of OATP1B3 transport activity [3]: significantly inhibited

Molecule: Cc1ccc(C)c(OCCCC(C)(C)C(=O)O)c1 [gemfibrozil]
- Effect on OATP1B3-mediated catalposide uptake [4]: decreased to basal levels; also recorded: inhibitory effects
- IC50 ([3]; read-out: IC50 as inhibitor of OATP1B3): ~200 µM
- Effect on OATP1B1-mediated catalposide uptake [5]: decreased to basal levels; also recorded: inhibitory effects

Molecule: CO[C@H]1/C=C/O[C@@]2(C)Oc3c(C)c(O)c4c(O)c(c(/C=N/N5CCN(C)CC5)c(O)c4c3C2=O)NC(=O)/C(C)=C\C=C\[C@H](C)[C@H](O)[C@@H](C)[C@@H](O)[C@@H](C)[C@H](OC(C)=O)[C@@H]1C [rifampin]
- Effect on OATP1B3-mediated catalposide uptake [4]: decreased to basal levels; also recorded: inhibitory effects
- Effect on OATP1B1-mediated catalposide uptake [5]: decreased to basal levels; also recorded: inhibitory effects

Molecule: C[C@]12CC[C@@H]3c4ccc(O)cc4CC[C@H]3[C@@H]1CC[C@@H]2O[C@@H]1O[C@H](C(=O)O)[C@@H](O)[C@H](O)[C@H]1O [EG, estradiol-17β-D-glucuronide]
- Fold increase in uptake vs HEK293 mock cells [6]: 15.0 fold

Molecule: COc1ccc(-c2oc3c(CC=C(C)C)c(O[C@@H]4O[C@H](CO)[C@@H](O)[C@H](O)[C@H]4O)cc(O)c3c(=O)c2O[C@@H]2O[C@@H](C)[C@H](O)[C@@H](O)[C@H]2O)cc1 [icariin]
- Inhibition of OATP2B1 activity [7]: potentially inhibited
- Inhibition of OATP1B3 activity [3]: potentially inhibited

Molecule: CN/C(=N/CCSCc1nc[nH]c1C)NC#N [cimetidine]
- Effect on OAT3-mediated catalposide uptake (words) [8]: decreased to basal levels
- Effect on OAT3-mediated catalposide uptake (words) ([8]; listed as Cimetidine): inhibited OAT3-mediated catalposide transport in a concentration-dependent manner
- inhibition at 10 min, 100 μM [9]: 70.4%

Molecule: COc1c(O)cc(O)c2c(=O)cc(-c3ccccc3)oc12 [wogonin]
- Inhibition of OAT3 transport activity [1]: significantly inhibited
- Inhibition of OAT1 transport activity [2]: significantly inhibited
- Inhibition of OATP1B3 transport activity [3]: significantly inhibited

Molecule: CCCN(CCC)S(=O)(=O)c1ccc(C(=O)O)cc1 [probenecid]
- Effect on OAT3-mediated catalposide uptake (words) [8]: decreased to basal levels; also recorded: inhibited OAT3-mediated catalposide transport in a concentration-dependent manner
- inhibition at 10 min, 10 μM [9]: 84.5%

Molecule: C[C@]12CC[C@@H]3c4ccc(OS(=O)(=O)O)cc4CC[C@H]3[C@@H]1CCC2=O [ES, estrone-3-sulfate]
- Net efflux ratio [10]: 4.6
- Fold increase in uptake vs HEK293 mock cells [11]: 17.3 fold
- Fold increase in uptake vs HEK293 mock cells [12]: 18.9 fold

B1: OAT3 (Homo sapiens) (protein)
chain: MTFSEILDRVGSMGHFQFLHVAILGLPILNMANHNLLQIFTAATPVHHCRPPHNASTGPWVLPMGPNGKPERCLRFVHPPNASLPNDTQRAMEPCLDGWVYNSTKDSIVTEWDLVCNSNKLKEMAQSIFMAGILIGGLVLGDLSDRFGRRPILTCSYLLLAASGSGAAFSPTFPIYMVFRFLCGFGISGITLSTVILNVEWVPTRMRAIMSTALGYCYTFGQFILPGLAYAIPQWRWLQLTVSIPFFVFFLSSWWTPESIRWLVLSGKSSKALKILRRVAVFNGKKEEGERLSLEELKLNLQKEISLAKAKYTASDLFRIPMLRRMTFCLSLAWFATGFAYYSLAMGVEEFGVNLYILQIIFGGVDVPAKFITILSLSYLGRHTTQAAALLLAGGAILALTFVPLDLQTVRTVLAVFGKGCLSSSFSCLFLYTSELYPTVIRQTGMGVSNLWTRVGSMVSPLVKITGEVQPFIPNIIYGITALLGGSAALFLPETLNQPLPETIEDLENWSLRAKKPKQEPEVEKASQRIPLQPHGPGLGSS
- Km [13]: 41.5 µM
